Measurements reported in patent US6500866B1, “1-(adamantyl)amidines and their use in the treatment of conditions generally associated with abnormalities in glutamatergic transmission” (Vernalis Research Limited, priority 1997, dated 2002).
Where a name gives a salt, the structure may show the parent alone.

Experiments:
[1] = target: PCP site of the NMDA receptor (cortical); experiment: [3H]-MK-801 binding, PCP site of NMDA receptor, rat cortical membranes; conditions: rat cortex membranes, [3H]-MK-801 5 nM, 10 μM glutamate, 10 μM glycine
Source text: (§1) The NMDA receptor contains several distinct binding domains that can regulate opening of the cationic channel. The phencyclidine (PCP) site of the NMDA receptor can be radiolabeled with [^3H]-(+)-5-methyl-10,11-dihydro-5H-dibenzo[a,d]cyclohepten-5,10-imine hydrogen maleate, [^3H-MK-801]. The following describes the procedure for determining the affinity of compounds for the PCP site in rat cortical or cerebellar membranes.
(§2) Frozen rat cortex or cerebellum, homogenized in 10 volumes of ice cold 0.32 M. sucrose is centrifuged at 1,000 g for 12 min and the supernatant stored on ice whilst the pellet was resuspended, rehomogenized and recentrifuged twice more. The three final supernatants were pooled and centrifuged at 30,000 g for 40 min at 4° C. to yield P2 pellets. These were resuspended in ice-cold distilled water, and centrifuged at 30,000 g for 50 min at 4° C. Following three further washes in distilled water, the P2 pellets were stored at −20° C. for at least 18 h. On the day of the assay, membrane pellets were thawed at room temperature, resuspended in ice-cold distilled water and centrifuged at 30,000 g for 20 min. The pellets were resuspended in 50 mM tris-HCl (pH:7.4) and recentrifuged twice more before being resuspended in tris-HCl for immediate use in the assay. Binding assays were performed at equilibrium in a total volume of 200 μl, containing, [^3H]-MK-801 (5 nM final conc.), 10 μM glutamate, 10 μM glycine, 160 μl of membrane preparation and additional drugs where appropriate. Non-specific binding was determined using MK-801 (10 μM). The assay was incubated for 120 min at room temperature. The incubation was terminated by rapid filtration through Whatman GF/B filters (pre-soaked in 0.1% PEI solution). The assay tubes and filters were washed five times with 1 ml of ice cold assay buffer. The filters were placed in poly-Q mini vials with approximately 5 ml of scintillation fluid. The vials are then shaken and left for at least 8 hours before being counted on a liquid scintillation counter. To determine the free ligand concentration 3 aliquots (20 μl) of the [^3H]-MK-801 working solution were also counted. Concentration response data for drugs was analysed using a 4 parameter equation fitted by non linear regression. This yielded the half maximally effective drug concentration (IC50) and Hill coefficient.

[2] = test system: PCP site of the NMDA receptor (cerebellar); experiment: [3H]-MK-801 binding, PCP site of NMDA receptor, rat cerebellar membranes; conditions: IC50 cortex / IC50 cerebellum
Source text: as §1, §2

[3] = target: T1, PCP site of the NMDA receptor (cerebellar); experiment: as above; conditions: rat cerebellum membranes, [3H]-MK-801 5 nM, 10 μM glutamate, 10 μM glycine
T1 construct: IC50(μM) Cerebellum; other: rat cerebellum membranes, [3H]-MK-801 5 nM, 10 μM glutamate, 10 μM glycine
Source text: as §1, §2

SMILES	melting point	IC50 [1]	Ratio of cortical to cerebellar binding affinity [2]	IC50 [3]
N=C(N)C12CC3CC(CC(Cl)(C3)C1)C2 (as salt: hydrochloride) [Example 2, 3-Chloro-1-adamantanecarboximidamide hydrochloride]	215 to 216 °C			
N=C(N)C12CC3CC(CC(Br)(C3)C1)C2 (as salt: hydrochloride) [Example 3, 3-Bromo-1-adamantanecarboximidamide hydrochloride]	221 to 223 °C			
CCC12CC3CC(C1)CC(C(=N)N)(C3)C2 (as salt: hydrochloride) [Example 4, 3-Ethyl-1-adamantanecarboximidamide hydrochloride]	210 to 212 °C			
CC12CC3CC(C)(C1)CC(CC(=N)N)(C3)C2 (as salt: hydrochloride) [Example 5, 3,5-Dimethyl-1-adamantaneacetiniidamide hydrochloride]	252 to 253 °C			
C=CCNC(=N)C12CC3CC(C)(CC(C)(C3)C1)C2 (as salt: hydrochloride) [Example 6, N-Allyl-3,5-dimethyl-1-adamantanecarboximidamide hydrochloride]	222 to 224 °C			
C=CCNC(=N)C12CC3CC(CC(C3)C1)C2 (as salt: hydrochloride) [Example 7, N-Allyl-1-adamantanecarboximidamide hydrochloride]	252 to 254 °C			
CCNC(=N)C12CC3CC(CC(C3)C1)C2 (as salt: hydrochloride) [Example 8, N-Ethyl-1-adamantanecarboximidainide hydrochloride]	315 °C (dec.)			
N=C(NCc1ccccc1)C12CC3CC(CC(C3)C1)C2 (as salt: hydrochloride) [Example 9, N-Benzyl-1-adamantanecarboximidamide hydrochloride]	242 to 244 °C			
CN(C)CCNC(=N)C12CC3CC(CC(C3)C1)C2 (as salt: hydrochloride) [Example 10, N-(2-Dimethylaminoethyl)-1-adamantanecarboximidamide dihydrochloride]	293 °C (dec.)			
CC12CC3CC(C)(C1)CC(CCC(=N)N)(C3)C2 (as salt: hydrochloride) [Example 11, 3-(3,5-Dimethyl-1-adamantyl)propanimidamide hydrochloride]	246 to 248 °C			
CC12CC3CC(C)(C1)CC(CC(=N)N)(C3)C2 [Example 5, 3,5-Dimethyl-1-adamantaneacetiniidamide hydrochloride]		82 µM	1.5	56 µM
CC12CC3CC(C1)CC(C(=N)N)(C3)C2.Cl [Example 12, 3-Methyl-1-adamantanecarboximidamide hydrochloride]		96 µM	2.7	36 µM
CC12CC3(C)CC(C)(C1)CC(C(=N)N)(C2)C3.Cl [Example 13, 3,5,7-Trimethyl-1-adamantanecarboximidamide hydrochloride]		43 µM	2.4	18 µM
Cl.N=C(N)C12CC3CC(C1)CC(c1ccc([N+](=O)[O-])cc1)(C3)C2 [Example 14, 3-(4-Nitrophenyl)-1-adamantanecarboximidamide hydrochloride]		406 µM	1.7	234 µM
Cl.N=C(N)C(Cc1ccccc1)C12CC3CC(CC(C3)C1)C2 (centres unmarked) [Example 16, 2-(1-Adamantyl)-3-phenylpropanimidamide hydrochloride]		52 µM	1.9	27 µM
N=C(N)CC(c1ccccc1)C12CC3CC(CC(C3)C1)C2 (centres unmarked) [Example 18, 3-(1-Adamantyl)-3-phenylpropanimidamide hydrochloride]		27 µM		
